Laboratory results reported in the NIST ThermoML archive (doi:10.1021/je100991y).
Numbers after ± are expanded uncertainties.

Experiments:
[1] = refractive index (Na D-line) (dimensionless); conditions: 101.33 kPa, Liquid, Standard Abbe refractometry
[2] = refractive index (Na D-line) (dimensionless); wn = mass fraction of the nth substance listed; conditions: 95 kPa, Liquid, Standard Abbe refractometry

For `CCOS(=O)(=O)[O-].CCn1cc[n+](C)c1` [1-ethyl-3-methylimidazolium ethyl sulfate], the refractive index ([1]; 298.2 K) was 1.4789 ± 0.0011 and the refractive index ([1]; 313.2 K) was 1.4745 ± 0.0011.

For `CCOP(=O)([O-])OCC.CCn1cc[n+](C)c1` [1-ethyl-3-methylimidazolium diethyl phosphate], the refractive index ([1]; 298.2 K) was 1.4733 ± 0.0006 and the refractive index ([1]; 313.2 K) was 1.4691 ± 0.0006.

Compound `Cc1cccc2c1sc1c(C)cccc12` [4,6-dimethyldibenzo[b,d]thiophene] + CCCCCCCCCCCC has a refractive index ([2]; 298.2 K, w1 = 0.0037) of 1.4201 ± 0.0006, a refractive index ([2]; 298.2 K, w1 = 0.0062) of 1.4206 ± 0.0006 and a refractive index ([2]; 298.2 K, w1 = 0.0089) of 1.421 ± 0.0006. It also gave a refractive index ([2]; 313.2 K, w1 = 0.0037) of 1.4137 ± 0.0006, a refractive index ([2]; 313.2 K, w1 = 0.0062) of 1.4141 ± 0.0006 and a refractive index ([2]; 313.2 K, w1 = 0.0089) of 1.4146 ± 0.0006.

Compound `CCCCCCCCCCCC` [dodecane] + Cc1cccc2c1sc1c(C)cccc12 has a refractive index ([2]; 298.2 K, w2 = 0) of 1.4196 ± 0.0006 and a refractive index ([2]; 313.2 K, w2 = 0) of 1.4131 ± 0.0006.

With `CCCCCCCCCCCC` [dodecane] the refractive index ([1]; 298.2 K) was 1.4196 ± 0.0006 and the refractive index ([1]; 313.2 K) was 1.4131 ± 0.0006.
